Laboratory results published in the supplement of paper PMC10307832.

Legend:
Assay in all cases: relative viability (nuclei count vs DMSO), 5 days (fraction); higher = more cells survive
LOU-NH91 = tested on: LOU-NH91
Procedure, shortened: (§1)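 Medians of duplicate plates are given as relative viability. That measure is the nuclei count in treated wells divided by the count in vehicle wells. Counts were taken on 4× images of lung cancer cell lines in 1536-well plates, 5 days after pin-tool dosing the day after seeding with one drug alone or a fixed anchor-drug dose plus five library-drug doses (not always all listed) in √10 steps.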

NCI-H1650 = tested on: NCI-H1650
Procedure, shortened: as §1

NCI-H2228 = tested on: NCI-H2228
Procedure, shortened: as §1

LC-2-ad = tested on: LC-2-ad
Procedure, shortened: as §1

HARA = tested on: HARA
Procedure, shortened: as §1

LU99A = tested on: LU99A
Procedure, shortened: as §1

BEN = tested on: BEN
Procedure, shortened: as §1

SK-LU-1 = tested on: SK-LU-1
Procedure, shortened: as §1

NCI-H520 = tested on: NCI-H520
Procedure, shortened: as §1

NCI-H1793 = tested on: NCI-H1793
Procedure, shortened: as §1

NCI-H1944 = tested on: NCI-H1944
Procedure, shortened: as §1

LCLC-103H = tested on: LCLC-103H
Procedure, shortened: as §1

NCI-H3122 = tested on: NCI-H3122
Procedure, shortened: as §1

COR-L23 = tested on: COR-L23
Procedure, shortened: as §1

A-427 = tested on: A-427
Procedure, shortened: as §1

NCI-H322M = tested on: NCI-H322M
Procedure, shortened: as §1

NCI-H1666 = tested on: NCI-H1666
Procedure, shortened: as §1

NCI-H1915 = tested on: NCI-H1915
Procedure, shortened: as §1

PC-14 = tested on: PC-14
Procedure, shortened: as §1

NCI-H2170 = tested on: NCI-H2170
Procedure, shortened: as §1

NCI-H2087 = tested on: NCI-H2087
Procedure, shortened: as §1

NCI-H727 = tested on: NCI-H727
Procedure, shortened: as §1

EKVX = tested on: EKVX
Procedure, shortened: as §1

PC-3 [JPC-3] = tested on: PC-3 [JPC-3]
Procedure, shortened: as §1

Oc1nc(-c2ccc(C(F)(F)F)cc2)nc2c1CSCC2 [XAV939] + O=C(c1cc(Cc2n[nH]c(=O)c3ccccc23)ccc1F)N1CCN(C(=O)C2CC2)CC1 [Olaparib] (partner 8 µM)
relative viability (LOU-NH91; first compound 0.08 µM): 0.923 | relative viability (LOU-NH91; first compound 0.253 µM): 0.834 | relative viability (LOU-NH91; first compound 0.8 µM): 0.908 | relative viability (LOU-NH91; first compound 2.53 µM): 0.887 | relative viability (NCI-H1650; first compound 0.08 µM): 0.762 | relative viability (NCI-H1650; first compound 0.253 µM): 0.633 | relative viability (NCI-H1650; first compound 0.8 µM): 0.749 | relative viability (NCI-H1650; first compound 2.53 µM): 0.61 | relative viability (NCI-H2228; first compound 0.08 µM): 0.945 | relative viability (NCI-H2228; first compound 0.253 µM): 0.562 | relative viability (NCI-H2228; first compound 0.8 µM): 0.65 | relative viability (NCI-H2228; first compound 2.53 µM): 0.608 | relative viability (LC-2-ad; first compound 0.08 µM): 0.659 | relative viability (LC-2-ad; first compound 0.253 µM): 0.652 | relative viability (LC-2-ad; first compound 0.8 µM): 0.685 | relative viability (LC-2-ad; first compound 2.53 µM): 0.553 | relative viability (HARA; first compound 0.08 µM): 0.832 | relative viability (HARA; first compound 0.253 µM): 0.862 | relative viability (HARA; first compound 0.8 µM): 0.759 | relative viability (HARA; first compound 2.53 µM): 0.661 | relative viability (LU99A; first compound 0.08 µM): 0.258 | relative viability (LU99A; first compound 0.253 µM): 0.257 | relative viability (LU99A; first compound 0.8 µM): 0.271 | relative viability (LU99A; first compound 2.53 µM): 0.258 | relative viability (BEN; first compound 0.08 µM): 1.14 | relative viability (BEN; first compound 0.253 µM): 1.04 | relative viability (BEN; first compound 0.8 µM): 1.02 | relative viability (BEN; first compound 2.53 µM): 0.845 | relative viability (SK-LU-1; first compound 0.08 µM): 0.5 | relative viability (SK-LU-1; first compound 0.253 µM): 0.481 | relative viability (SK-LU-1; first compound 0.8 µM): 0.437 | relative viability (SK-LU-1; first compound 2.53 µM): 0.596 | relative viability (NCI-H520; first compound 0.08 µM): 0.375 | relative viability (NCI-H520; first compound 0.8 µM): 0.342 | relative viability (NCI-H520; first compound 2.53 µM): 0.356 | relative viability (NCI-H1793; first compound 0.08 µM): 1.15 | relative viability (NCI-H1793; first compound 0.253 µM): 0.707 | relative viability (NCI-H1793; first compound 0.8 µM): 0.916 | relative viability (NCI-H1793; first compound 2.53 µM): 0.646 | relative viability (NCI-H1944; first compound 0.08 µM): 0.421 | relative viability (NCI-H1944; first compound 0.253 µM): 0.279 | relative viability (NCI-H1944; first compound 0.8 µM): 0.365 | relative viability (NCI-H1944; first compound 2.53 µM): 0.342 | relative viability (LCLC-103H; first compound 0.08 µM): 0.833 | relative viability (LCLC-103H; first compound 0.253 µM): 0.691 | relative viability (LCLC-103H; first compound 0.8 µM): 0.725 | relative viability (LCLC-103H; first compound 2.53 µM): 0.767 | relative viability (NCI-H3122; first compound 0.08 µM): 0.706 | relative viability (NCI-H3122; first compound 0.253 µM): 0.574 | relative viability (NCI-H3122; first compound 0.8 µM): 0.538 | relative viability (NCI-H3122; first compound 2.53 µM): 0.468 | relative viability (COR-L23; first compound 0.08 µM): 0.321 | relative viability (COR-L23; first compound 0.253 µM): 0.386 | relative viability (COR-L23; first compound 0.8 µM): 0.315 | relative viability (COR-L23; first compound 2.53 µM): 0.29 | relative viability (A-427; first compound 0.08 µM): 0.785 | relative viability (A-427; first compound 0.253 µM): 0.584 | relative viability (A-427; first compound 0.8 µM): 0.706 | relative viability (A-427; first compound 2.53 µM): 0.663 | relative viability (NCI-H322M; first compound 0.08 µM): 0.874 | relative viability (NCI-H322M; first compound 0.253 µM): 0.752 | relative viability (NCI-H322M; first compound 0.8 µM): 0.667 | relative viability (NCI-H322M; first compound 2.53 µM): 0.661 | relative viability (NCI-H1666; first compound 0.08 µM): 0.748 | relative viability (NCI-H1666; first compound 0.253 µM): 0.741 | relative viability (NCI-H1666; first compound 0.8 µM): 0.745 | relative viability (NCI-H1666; first compound 2.53 µM): 0.754 | relative viability (NCI-H1915; first compound 0.08 µM): 0.247 | relative viability (NCI-H1915; first compound 0.253 µM): 0.256 | relative viability (NCI-H1915; first compound 0.8 µM): 0.239 | relative viability (NCI-H1915; first compound 2.53 µM): 0.275 | relative viability (PC-14; first compound 0.08 µM): 0.305 | relative viability (PC-14; first compound 0.253 µM): 0.208 | relative viability (PC-14; first compound 0.8 µM): 0.313 | relative viability (PC-14; first compound 2.53 µM): 0.248 | relative viability (NCI-H2170; first compound 0.08 µM): 0.56 | relative viability (NCI-H2170; first compound 0.253 µM): 0.451 | relative viability (NCI-H2170; first compound 0.8 µM): 0.5 | relative viability (NCI-H2170; first compound 2.53 µM): 0.402 | relative viability (NCI-H2087; first compound 0.08 µM): 0.625 | relative viability (NCI-H2087; first compound 0.253 µM): 0.533 | relative viability (NCI-H2087; first compound 0.8 µM): 0.665 | relative viability (NCI-H2087; first compound 2.53 µM): 0.464 | relative viability (NCI-H727; first compound 0.08 µM): 0.706 | relative viability (NCI-H727; first compound 0.8 µM): 0.696 | relative viability (NCI-H727; first compound 2.53 µM): 0.678 | relative viability (EKVX; first compound 0.08 µM): 0.929 | relative viability (EKVX; first compound 0.253 µM): 0.514 | relative viability (EKVX; first compound 0.8 µM): 0.65 | relative viability (EKVX; first compound 2.53 µM): 0.378 | relative viability (PC-3 [JPC-3]; first compound 0.253 µM): 0.997 | relative viability (PC-3 [JPC-3]; first compound 0.8 µM): 1.17 | relative viability (PC-3 [JPC-3]; first compound 2.53 µM): 1.06
